Measured values: the NIST ThermoML archive (doi:10.1021/je700287u)

Experiment: xn = mol fraction of the nth substance listed
Conditions: Liquid

CN(CCO)CCO [N-methyldiethanolamine] + O
Conditions | mass density [kg/m3]
323.09 K, 3015 kPa, x1 = 0.1302 | 1027.4
323.09 K, 3997 kPa, x1 = 0.0369 | 1002.4
323.09 K, 4003 kPa, x1 = 0.1302 | 1027.8
323.09 K, 4998 kPa, x1 = 0.0369 | 1002.7
323.09 K, 4999 kPa, x1 = 0.1302 | 1028.1
323.09 K, 5998 kPa, x1 = 0.1302 | 1028.5
323.09 K, 6003 kPa, x1 = 0.0369 | 1003.1
323.09 K, 6993 kPa, x1 = 0.0369 | 1003.5
323.09 K, 6998 kPa, x1 = 0.1302 | 1028.9
323.09 K, 7994 kPa, x1 = 0.0369 | 1004
323.09 K, 7999 kPa, x1 = 0.1302 | 1029.3
323.09 K, 8996 kPa, x1 = 0.0369 | 1004.4
323.09 K, 8998 kPa, x1 = 0.1302 | 1029.7
323.09 K, 9995 kPa, x1 = 0.1302 | 1030.1
323.09 K, 9997 kPa, x1 = 0.0369 | 1004.8
323.09 K, 10986 kPa, x1 = 0.0369 | 1005.2
323.09 K, 10997 kPa, x1 = 0.1302 | 1030.4
323.09 K, 11988 kPa, x1 = 0.0369 | 1005.6
323.09 K, 11998 kPa, x1 = 0.1302 | 1030.8
323.09 K, 12997 kPa, x1 = 0.0369 | 1006
323.09 K, 13005 kPa, x1 = 0.1302 | 1031.2
323.09 K, 13999 kPa, x1 = 0.0369 | 1006.4
323.09 K, 14003 kPa, x1 = 0.1302 | 1031.6
323.09 K, 14989 kPa, x1 = 0.0369 | 1006.8
323.09 K, 14990 kPa, x1 = 0.1302 | 1032
323.09 K, 15996 kPa, x1 = 0.1302 | 1032.3
323.09 K, 16002 kPa, x1 = 0.0369 | 1007.1
323.09 K, 16988 kPa, x1 = 0.0369 | 1007.6
323.09 K, 16999 kPa, x1 = 0.1302 | 1032.7
323.09 K, 17990 kPa, x1 = 0.0369 | 1007.9
323.09 K, 17996 kPa, x1 = 0.1302 | 1033.1
323.09 K, 18988 kPa, x1 = 0.1302 | 1033.4
323.09 K, 18996 kPa, x1 = 0.0369 | 1008.3
323.09 K, 19995 kPa, x1 = 0.0369 | 1008.7
323.09 K, 20004 kPa, x1 = 0.1302 | 1033.8
323.1 K, 1009 kPa, x1 = 0.0893 | 1019.6
323.1 K, 2006 kPa, x1 = 0.0893 | 1020
323.1 K, 3012 kPa, x1 = 0.0893 | 1020.4
323.1 K, 4011 kPa, x1 = 0.0893 | 1020.8
323.1 K, 5002 kPa, x1 = 0.0893 | 1021.2
323.1 K, 5996 kPa, x1 = 0.0893 | 1021.6
323.1 K, 7006 kPa, x1 = 0.0893 | 1022
323.1 K, 8004 kPa, x1 = 0.0893 | 1022.3
323.1 K, 8991 kPa, x1 = 0.0893 | 1022.7
323.1 K, 9999 kPa, x1 = 0.0893 | 1023.1
323.1 K, 10993 kPa, x1 = 0.0893 | 1023.5
323.1 K, 11992 kPa, x1 = 0.0893 | 1023.8
323.1 K, 13001 kPa, x1 = 0.0893 | 1024.2
323.1 K, 13990 kPa, x1 = 0.0893 | 1024.6
323.1 K, 14980 kPa, x1 = 0.0893 | 1025
323.1 K, 16002 kPa, x1 = 0.0893 | 1025.3
323.1 K, 16990 kPa, x1 = 0.0893 | 1025.7
323.1 K, 17994 kPa, x1 = 0.0893 | 1026.1
323.1 K, 18999 kPa, x1 = 0.0893 | 1026.5
323.1 K, 20002 kPa, x1 = 0.0893 | 1026.8
333.03 K, 1009 kPa, x1 = 0.1302 | 1019.4
333.03 K, 1015 kPa, x1 = 0.0607 | 1006.4
333.03 K, 1998 kPa, x1 = 0.0607 | 1006.8
333.03 K, 2002 kPa, x1 = 0.1302 | 1019.8
333.03 K, 2997 kPa, x1 = 0.1302 | 1020.2
333.03 K, 3013 kPa, x1 = 0.0607 | 1007.2
333.03 K, 3993 kPa, x1 = 0.1302 | 1020.6
333.03 K, 4037 kPa, x1 = 0.0607 | 1007.6
333.03 K, 4997 kPa, x1 = 0.1302 | 1021
333.03 K, 5116 kPa, x1 = 0.0607 | 1008.1
333.03 K, 6002 kPa, x1 = 0.1302 | 1021.4
333.03 K, 6004 kPa, x1 = 0.0607 | 1008.4
333.03 K, 6992 kPa, x1 = 0.0607 | 1008.8
333.03 K, 6992 kPa, x1 = 0.1302 | 1021.8
333.03 K, 8003 kPa, x1 = 0.0607 | 1009.1
333.03 K, 8013 kPa, x1 = 0.1302 | 1022.2
333.03 K, 8975 kPa, x1 = 0.0607 | 1009.6
333.03 K, 9016 kPa, x1 = 0.1302 | 1022.6
333.03 K, 9983 kPa, x1 = 0.0607 | 1009.9
333.03 K, 9993 kPa, x1 = 0.1302 | 1023
333.03 K, 10989 kPa, x1 = 0.1302 | 1023.4
333.03 K, 11029 kPa, x1 = 0.0607 | 1010.4
333.03 K, 12007 kPa, x1 = 0.1302 | 1023.8
333.03 K, 12015 kPa, x1 = 0.0607 | 1010.7
333.03 K, 13003 kPa, x1 = 0.1302 | 1024.1
333.03 K, 13028 kPa, x1 = 0.0607 | 1011.1
333.03 K, 13995 kPa, x1 = 0.1302 | 1024.5
333.03 K, 14020 kPa, x1 = 0.0607 | 1011.5
333.03 K, 15011 kPa, x1 = 0.1302 | 1024.9
333.03 K, 15022 kPa, x1 = 0.0607 | 1011.9
333.03 K, 15996 kPa, x1 = 0.1302 | 1025.3
333.03 K, 16006 kPa, x1 = 0.0607 | 1012.3
333.03 K, 16996 kPa, x1 = 0.0607 | 1012.7
333.03 K, 17011 kPa, x1 = 0.1302 | 1025.7
333.03 K, 17985 kPa, x1 = 0.1302 | 1026.1
333.03 K, 18013 kPa, x1 = 0.0607 | 1013.1
333.03 K, 18991 kPa, x1 = 0.1302 | 1026.4
333.03 K, 19018 kPa, x1 = 0.0607 | 1013.4
333.03 K, 19965 kPa, x1 = 0.0607 | 1013.8
333.03 K, 19993 kPa, x1 = 0.1302 | 1026.8
333.04 K, 1012 kPa, x1 = 0.0369 | 995.9
333.04 K, 1999 kPa, x1 = 0.0369 | 996.3
333.04 K, 2995 kPa, x1 = 0.0369 | 996.7
333.04 K, 4008 kPa, x1 = 0.0369 | 997.2
333.04 K, 4992 kPa, x1 = 0.0369 | 997.6
333.04 K, 5983 kPa, x1 = 0.0369 | 998
333.04 K, 6994 kPa, x1 = 0.0369 | 998.4
333.04 K, 7997 kPa, x1 = 0.0369 | 998.8
333.04 K, 8994 kPa, x1 = 0.0369 | 999.2
333.04 K, 9994 kPa, x1 = 0.0369 | 999.6
